A short description of this data set: Solubility. The format is physicochemical.

Here are results for three compounds from US4012284A (Societa' Farmaceutici Italia, S.p.A., priority 1962, dated 1977).

The structures appear in SMILES notation. Structures can show the parent of a compound that is named as a salt.

For the compound `COc1cccc2c1C(=O)c1c(O)c3c(c(O)c1C2=O)C[C@@](O)(C(C)=O)C[C@@H]3O[C@H]1C[C@H](N)[C@H](O)[C@H](C)O1` [F.I. 1762 picrate], the solubility entry (in lower aliphatic alcohols, halogenated hydrocarbon (chloroform), ketones (acetone, methylethylketone)) is recorded as “soluble”.

Regarding `COc1cccc2c1C(=O)c1c(O)c3c(c(O)c1C2=O)C[C@@](O)(C(C)=O)C[C@@H]3O[C@H]1C[C@H](N)[C@H](O)[C@H](C)O1` [F.I. 1762 hydrochloride], the solubility in water entry was “soluble”. Besides, the solubility result (in chloroform, acetone, benzol and non-polar solvents) is listed as “insoluble”. Also, the solubility entry (in methanol, aqueous alcohols) is given as “soluble”.

Regarding `COc1cccc2c1C(=O)c1c(O)c3c(c(O)c1C2=O)C[C@@](O)(C(C)=O)C[C@@H]3O` [Daunomycinone, daunomycinone], the solubility in water entry is reported as “insoluble”. Besides, the solubility entry (in benzene, aliphatic esters, ethyl ether) was “scarcely soluble”. Also, for the setting “in butanol, acetone”, the solubility result is “less soluble”. The solubility result (in methanol, ethanol, chloroform) was “soluble”. Further, under “in petroleum ether”, the solubility result was “insoluble”.
